# Reference: patent publication US20190105367A1, “ANTIMICROBIAL 4-OXOQUINOLIZINES” (Emergent Product Development Gaithersburg Inc., priority 2011, published 2019)
# Where two headings read alike, the source gives them in different places.
# Assays:
# A. baumannii A473 [1] = assay: MIC without and with sub-inhibitory polymyxin B (Example 4); type: cell-based, Acinetobacter baumannii; conditions: A. baumannii A473; +0.06 μg/ml PB; 2nd experiment
# [2] = system: strains of A. baumannii and one strain of Acinetobacter sp.; assay: MIC with sub-inhibitory concentrations (0.25x MIC) of polymyxin B, panel of Acinetobacter strains (Example 4); type: cell-based
# A. baumannii A472 [3] = assay: MIC without and with sub-inhibitory polymyxin B (Example 4); type: cell-based, Acinetobacter baumannii; conditions: for MIC: Acinetobacter baumannii
# A. baumannii NCTC 13301 [4] = assay: as above; type: cell-based, Acinetobacter baumannii; conditions: +[…] PB, 2nd experiment
# A. baumannii ATCC 19606 [5] = assay: as above; type: cell-based, Acinetobacter baumannii; conditions: for MIC without PB/MIC + PB: A. baumannii ATCC 19606
# A. baumannii ATCC 19606 [6] = assay: Preliminary MBC without and with sub-inhibitory polymyxin B (Example 4); type: cell-based, Acinetobacter baumannii; conditions: Acinetobacter baumannii
# A. baumannii A401 [7] = assay: MIC without and with sub-inhibitory polymyxin B (Example 4); type: cell-based, Acinetobacter baumannii; conditions: for MIC: Acinetobacter baumannii
# A. baumannii A472 [8] = assay: Preliminary MBC without and with sub-inhibitory polymyxin B (Example 4); type: cell-based, Acinetobacter baumannii; conditions: Acinetobacter baumannii, preliminary MBC
# A. baumannii A401 [9] = assay: as above; type: cell-based, Acinetobacter baumannii; conditions: Acinetobacter baumannii
# A. baumannii NCTC 13301 [10] = assay: MIC without and with sub-inhibitory polymyxin B (Example 4); type: cell-based, Acinetobacter baumannii
# A. baumannii A329 = assay: Preliminary MBC without and with sub-inhibitory polymyxin B (Example 4); type: cell-based, Acinetobacter baumannii; conditions: Acinetobacter baumannii, A329, A. baumannii A329, +0.06 μg/ml PB, 2nd experiment, read-out: MBC
# A. baumannii A14 [11] = assay: MIC without and with sub-inhibitory polymyxin B (Example 4); type: cell-based, Acinetobacter baumannii; conditions: 1st experiment
# A. baumannii A489 = assay: as above; type: cell-based, Acinetobacter baumannii; conditions: for MIC without PB/MIC + PB: A. baumannii A489; for MIC: Acinetobacter baumannii
# A. baumannii A390 [12] = assay: as above; type: cell-based, Acinetobacter baumannii; conditions: +0.06 μg/ml PB, 2nd experiment
# A. baumannii J2 [13] = assay: Preliminary MBC without and with sub-inhibitory polymyxin B (Example 4); type: cell-based, Acinetobacter baumannii; conditions: Acinetobacter baumannii, preliminary MBC
# A. baumannii A14 [14] = assay: as above; type: cell-based, Acinetobacter baumannii; conditions: A. baumannii A14, +0.06 μg/ml PB, 2nd experiment
# Procedure, shortened: (§1)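 Bactericidal endpoint scored visually on plates incubated at 37° C (18-20 hours): the lowest concentration where growth fell about 90% versus the positive control, generally leaving one colony or none.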
# A. baumannii A473 [15] = assay: as above; type: cell-based, Acinetobacter baumannii; conditions: Acinetobacter baumannii, A473, A. baumannii A473, +0.06 μg/ml PB, 2nd experiment, read-out: MBC
# Procedure, shortened: as §1
# A. baumannii A390 [16] = assay: as above; type: cell-based, Acinetobacter baumannii; conditions: Acinetobacter baumannii, A390, A. baumannii A390, +0.06 μg/ml PB, 2nd experiment, read-out: MBC
# Procedure, shortened: as §1
# A. baumannii NCTC 13301 [17] = assay: as above; type: cell-based, Acinetobacter baumannii; conditions: Acinetobacter baumannii
# Procedure, shortened: as §1
# A. baumannii J2 [18] = assay: MIC without and with sub-inhibitory polymyxin B (Example 4); type: cell-based, Acinetobacter baumannii; conditions: for MIC without PB/MIC + PB: A. baumannii J2; for MIC: Acinetobacter baumannii
# [19] = system: Acinetobacter sp. (H064200250); assay: Preliminary MBC without and with sub-inhibitory polymyxin B (Example 4); type: cell-based; conditions: Acinetobacter, preliminary MBC
# Procedure, shortened: as §1
# A. baumannii A387 [20] = assay: as above; type: cell-based, Acinetobacter baumannii; conditions: Acinetobacter baumannii
# A. baumannii A387 [21] = assay: MIC without and with sub-inhibitory polymyxin B (Example 4); type: cell-based, Acinetobacter baumannii; conditions: for MIC without PB/MIC + PB: A. baumannii A387
# [22] = system: Acinetobacter sp. (H064200250); assay: as above; type: cell-based; conditions: for MIC: Acinetobacter
# [23] = ratio, PB 0.06 μg/ml, 1st experiment
structure (smiles),measurement,setting,value
"Cc1c(-c2ccc(CN)c(F)c2)ccn2c(=O)c(C(=O)O)cc(C3CC3)c12 [Compound 4, 8-(3-fluoro-4-aminomethyl-phenyl)-1-cyclopropyl-9-methyl-4-oxo-quinolizine-3-carboxylic acid]",MIC,A. baumannii A473 [1],0.25 µg/mL
same,MIC without PB/MIC + PB,A. baumannii A473 [1],32
same,"Range ratios MIC without PB/MIC with PB Oct. 1, 2008 n = 8",[2]; 1st experiment,2-8
same,"MIC range with PB (0.25x MIC) Oct. 1, 2008 n = 8","[2]; 1st experiment, […] polymyxin B, ATCC 19606, A329, A390 and A473 not taken",1 to 8 µg/mL
same,"Range ratios MIC without PB/MIC with PB Oct. 14, 2008 n = 11",[2]; 2nd experiment,1-16
same,"MIC range with PB (0.25x MIC) Oct. 14, 2008 n = 11","[2]; 2nd experiment, 0.06 μg/ml polymyxin B, all strains except the ATCC strain",0.5 to 8 µg/mL
same,MIC without PB/MIC + PB,"A. baumannii A472 [3]; A. baumannii A472, ratio, PB […], 1st experiment",4
same,MIC,"A. baumannii A472 [3]; A472, A. baumannii A472, +[…] PB, 2nd experiment, read-out: MIC",0.125 µg/mL
same,MIC,"A. baumannii A472 [3]; A472, read-out: MIC +[…] PB, A. baumannii A472, +[…] polymyxin B, 1st experiment",1 µg/mL
same,MIC without PB/MIC + PB,A. baumannii NCTC 13301 [4]; A. baumannii NCTC 13301,128
same,MIC,"A. baumannii NCTC 13301 [4]; Acinetobacter baumannii, NCTC13301, A. baumannii NCTC 13301, read-out: MIC",0.25 µg/mL
same,MIC without PB/MIC + PB,"A. baumannii ATCC 19606 [5]; +0.06 μg/ml PB, 2nd experiment",≥16
same,MIC without PB/MIC + PB,A. baumannii ATCC 19606 [5]; [23],2
same,MIC,"A. baumannii ATCC 19606 [5]; Acinetobacter baumannii, ATCC19606, read-out: MIC +0.06 μg/ml PB, A. baumannii ATCC 19606, +0.06 μg/ml polymyxin B, 1st experiment",0.125 µg/mL
same,MBC,"A. baumannii ATCC 19606 [6]; ATCC19606, A. baumannii ATCC 19606, +0.06 μg/ml PB, 2nd experiment, read-out: MBC",≤ 0.03 µg/mL
same,MBC,"A. baumannii ATCC 19606 [6]; ATCC19606, read-out: MBC +0.06 μg/ml PB, A. baumannii ATCC 19606, +0.06 μg/ml polymyxin B, 1st experiment",0.06 µg/mL
same,MIC without PB/MIC + PB,"A. baumannii A401 [7]; A baumannii A 401, ratio, PB 0.06 μg/ml, 1st experiment",4
same,MIC,"A. baumannii A401 [7]; A401, A baumannii A 401, +0.06 μg/ml PB, 2nd experiment, read-out: MIC",0.5 µg/mL
same,MIC,"A. baumannii A401 [7]; A401, read-out: MIC +0.06 μg/ml PB, A baumannii A 401, +0.06 μg/ml polymyxin B, 1st experiment",4 µg/mL
same,MBC,"A. baumannii A472 [8]; A472, A. baumannii A472, +[…] PB, 2nd experiment, read-out: MBC",0.125 µg/mL
same,MBC,"A. baumannii A472 [8]; A472, read-out: MBC +[…] PB, A. baumannii A472, +[…] polymyxin B, 1st experiment",1 µg/mL
same,MBC,"A. baumannii A401 [9]; A401, A baumannii A 401, +0.06 μg/ml PB, 2nd experiment, read-out: MBC",0.5 µg/mL
same,MBC,"A. baumannii A401 [9]; A401, read-out: MBC +0.06 μg/ml PB, A baumannii A 401, +0.06 μg/ml polymyxin B, 1st experiment",2 µg/mL
same,MIC without PB/MIC + PB,"A. baumannii NCTC 13301 [10]; A. baumannii NCTC 13301, ratio, PB […], 1st experiment",8
same,MIC,"A. baumannii NCTC 13301 [10]; Acinetobacter baumannii, NCTC13301, read-out: MIC +[…] PB",1 µg/mL
same,MBC,A. baumannii A329,8 µg/mL
same,MIC +0.06 μg/ml PB,A. baumannii A14 [11]; +0.06 μg/ml polymyxin B,8 µg/mL
same,MIC without PB/MIC + PB,"A. baumannii A14 [11]; ratio, PB 0.06 μg/ml",4
same,MIC without PB/MIC + PB,"A. baumannii A489; +[…] PB, 2nd experiment",≥512
same,MIC without PB/MIC + PB,"A. baumannii A489; ratio, PB […], 1st experiment",8
same,MIC,"A. baumannii A489; A489, A. baumannii A489, +[…] PB, 2nd experiment, read-out: MIC",≤ 0.03 µg/mL
same,MIC,"A. baumannii A489; A489, read-out: MIC +[…] PB, A. baumannii A489, +[…] polymyxin B, 1st experiment",1 µg/mL
same,MIC without PB/MIC + PB,A. baumannii A390 [12]; A. baumannii A390,64
same,MIC,"A. baumannii A390 [12]; Acinetobacter baumannii, A390, A. baumannii A390, read-out: MIC",0.5 µg/mL
same,MBC,"A. baumannii J2 [13]; J2, A. baumannii J2, +[…] PB, 2nd experiment, read-out: MBC",0.06 µg/mL
same,MBC,"A. baumannii J2 [13]; J2, read-out: MBC +[…] PB, A. baumannii J2, +[…] polymyxin B, 1st experiment",1 µg/mL
same,MBC,A. baumannii A14 [14],8 µg/mL
same,MBC,A. baumannii A473 [15],0.25 µg/mL
same,MBC,A. baumannii A390 [16],0.5 µg/mL
same,MBC,"A. baumannii NCTC 13301 [17]; NCTC13301, A. baumannii NCTC 13301, +[…] PB, preliminary MBC, 2nd experiment, read-out: MBC",0.25 µg/mL
same,MBC,"A. baumannii NCTC 13301 [17]; NCTC13301, read-out: MBC +[…] PB",0.5 µg/mL
same,MIC without PB/MIC + PB,"A. baumannii J2 [18]; +[…] PB, 2nd experiment",128
same,MIC without PB/MIC + PB,"A. baumannii J2 [18]; ratio, PB […], 1st experiment",4
same,MIC,"A. baumannii J2 [18]; J2, A. baumannii J2, +[…] PB, 2nd experiment, read-out: MIC",0.06 µg/mL
same,MIC,"A. baumannii J2 [18]; J2, read-out: MIC +[…] PB, A. baumannii J2, +[…] polymyxin B, 1st experiment",2 µg/mL
same,MBC,"[19]; Acinetobacter spp. H064200250 (OXA51), +[…] PB, 2nd experiment, read-out: MBC",0.5 µg/mL
same,MBC,"[19]; read-out: MBC +[…] PB, Acinetobacter spp. H064200250, +[…] polymyxin B, 1st experiment",8 µg/mL
same,MBC,"A. baumannii A387 [20]; A387, A. baumannii A387, +0.06 μg/ml PB, 2nd experiment, read-out: MBC",0.5 µg/mL
same,MBC,"A. baumannii A387 [20]; A387, read-out: MBC +0.06 μg/ml PB, A. baumannii A387, +0.06 μg/ml polymyxin B, 1st experiment",1 µg/mL
same,MIC without PB/MIC + PB,"A. baumannii A387 [21]; +0.06 μg/ml PB, 2nd experiment",8
same,MIC without PB/MIC + PB,A. baumannii A387 [21]; [23],2
same,MIC,"A. baumannii A387 [21]; Acinetobacter baumannii, A387, read-out: MIC +0.06 μg/ml PB, A. baumannii A387, +0.06 μg/ml polymyxin B, 1st experiment",1 µg/mL
same,MIC without PB/MIC + PB,"[22]; Acinetobacter spp. H064200250 (OXA51), +[…] PB, 2nd experiment",64
same,MIC without PB/MIC + PB,"[22]; Acinetobacter spp. H064200250, ratio, PB […], 1st experiment",4
same,MIC,"[22]; Acinetobacter spp. H064200250 (OXA51), +[…] PB, 2nd experiment, read-out: MIC",0.5 µg/mL
same,MIC,"[22]; read-out: MIC +[…] PB, Acinetobacter spp. H064200250, +[…] polymyxin B, 1st experiment",4 µg/mL
